In US20080299588A1, “Methods For Measuring Bone Formation” (The Curators of the University of Missouri A public …, priority 2007, published 2008):
“Also recorded” adds a separate entry of the source.

Key:
BAG-75 and BSP = assay: Uptake and proteolytic cleavage of BAG-75 and BSP in mineralizing UMR cultures (SDS-PAGE, staining, immunoblotting); format: cell-based, Rat
Method: Two Step Extraction of Cell Layer—2-Step Method. During the final 24 hour mineralization period, cells were grown in BSA-free, serum-free media conditions to reduce the amount of BSA in fractions used for 2-dimensional gel electrophoresis. Media was removed from each flask, heated at 95° C. for 5 minutes, dialyzed against 5% acetic acid, and lyophilized to dryness. Cell layers were first extracted without mixing for 2 h at 4° C. in 0.05 M Tris-acetate buffer (pH 7.5) containing 0.15 M NaCl, 0.05 M EDTA and 0.02% sodium azide; extracts were then inactivated at 95° C. for 5 minutes, dialyzed against 5% HAc, and lyophilized to dryness. The residual cell layer was next dislodged by scrapping and then extracted overnight at 4° C. by slow mixing with 0.1 M Trisacetate buffer (pH 7.5) containing 8 M urea, 2% (w/v) CHAPS and 0.02% sodium azide. Urea extracts were then homogenized and clarified by ultracentrifugation at 30,000 rpm for 1 h at 4° C. in an SW 50.1 rotor prior to use in 2-dimensional gel electrophoresis.
Western Blotting—Chemiluminescence Detection. […]
The effect of AEBSF on the protein distribution within mineralizing cultures was analyzed using cells grown until 64 hours, at which time they were fed with one of four different media conditions. […]

[1] = tested on: primary mouse calvarial cultures; assay: MTT assay in primary mouse calvarial cultures; format: cell-based; conditions: 0.01 to 0.1 mM, scored on day 12
Method: Primary mouse calvaria were isolated from 3-5 day old mice and digested with trypsin/collagenase. Three sequential enzymatic digestions were pooled and spun down at 1500 rpm and the cells were resuspended in alpha-MEM containing 10% fetal bovine serum, 2 mM L-glutamine, 100 u/ml penicillin and 30 ug/ml gentamicin (Alpha-Growth Medium). Cells were plated directly at a density of 2-3×10^6 cells per T-75 cm2 flask and allowed to reach confluency (3-4 days). Confluent cultures were passaged by trypsinization and re-plating in 12- or 24-well culture dishes at a density of 20,000 cells per cm2. Cultures were subsequently re-fed at three-day intervals with Alpha-Growth Medium supplemented with 50 ug/ml ascorbic acid and 5 mM beta-glycerol phosphate. Beta-glycerol phosphate was omitted from some wells, which served as an unmineralized control. […] A second set was fixed on day 12 with 70% ethanol and processed for quantitative Alizarin red S staining as described for UMR cultures.
(§1) MTT Assays Culture wells were washed with Eagle's MEM supplemented with Earle's salts and then incubated with a solution of 0.5 mg/ml MTT (3-(4,5-dimethylthiazol-2-yl)-2,5-diphenyl-2Htetrazolium bromide) in Eagle's MEM for 1-2 h at 37° C. Excess MTT solution was removed, the cells disrupted by mixing briefly with dimethylsulfoxide, and free, reduced dye was read at 490 or 540 nm in a spectrophotometer.

UMR-106 cells [2] = assay: MTT cell viability assay in UMR 106-01 cultures; format: cell-based, Rat
Method: Cell Culture. UMR 106-01 cells were maintained and cultured at 37° C. and 5% carbon dioxide. Cells were seeded at a density of 1.0×10^5 cells/cm^2 in Growth Medium (Eagle's MEM supplemented with Earle's salts, 1% non-essential amino acids, 10 mM, HEPES, pH 7.2, and 10% fetal bovine serum). After 24 hours (h), the medium was exchanged with Growth Medium containing 0.5% BSA. Sixty-four hours after plating, the culture medium was exchanged with Mineralization Media (Growth Medium containing either 0.1% BSA or 10% fetal bovine serum and 7 mM β-glycerol phosphate). Cultures were then incubated for an additional 24 hours, at the end of which (88 h), the cells were fixed in 70% ethanol and either subjected to MTT assay or extracted for protein. […] Alternatively, AEBSF was added at 44 h after plating; inhibitor was then removed and exchanged for Mineralization Media at 64 h and the amount of mineralization analyzed at 88 h.
as §1, with “spectrophotometer. […]” for “spectrophotometer.”

UMR-106 cells [3] = assay: Mineral deposition (hydroxyapatite) within BMF in UMR 106-01 cultures, Alizarin red S quantitation; format: cell-based, Rat
Method: Cell Culture. UMR 106-01 cells were maintained and cultured at 37° C. and 5% carbon dioxide. Cells were seeded at a density of 1.0×10^5 cells/cm^2 in Growth Medium (Eagle's MEM supplemented with Earle's salts, 1% non-essential amino acids, 10 mM, HEPES, pH 7.2, and 10% fetal bovine serum). After 24 hours (h), the medium was exchanged with Growth Medium containing 0.5% BSA. Sixty-four hours after plating, the culture medium was exchanged with Mineralization Media (Growth Medium containing either 0.1% BSA or 10% fetal bovine serum and 7 mM β-glycerol phosphate). Cultures were then incubated for an additional 24 hours, at the end of which (88 h), the cells were fixed in 70% ethanol and either subjected to MTT assay or extracted for protein. In some experiments, protease inhibitors, including serine protease inhibitor AEBSF (4-(2-aminoethyl)-benzenesulfonylfluoride HCl), were added to cultures at 64 h after plating in Mineralization Media. Alternatively, AEBSF was added at 44 h after plating; inhibitor was then removed and exchanged for Mineralization Media at 64 h and the amount of mineralization analyzed at 88 h.
Quantitation of Mineralization. […] Bound dye was quantitated by extraction for 2 h at 4° C. in cold 10 mM HCl in 70% ethanol. The initial extract was collected and combined with a second extract and then read at 520 nm in a spectrophotometer. A standard curve for Alizarin red S dye was constructed for each analysis and the amount of bound dye/culture well was determined. […] Combined extracts were read at 520 nm in a spectrophotometer and the amount of bound dye/culture well was determined based on a standard curve.
To investigate the nature of the protease activity responsible for BAG-75/BSP cleavage and the relationship of cleavage with mineralization, a variety of protease inhibitors (Table 1) were tested in the UMR model. Individual inhibitors were added to confluent cultures at 64 hours after plating and the amount of hydroxyapatite deposited within BMF was quantitated 24 hours later. […]

[4] = tested on: procollagen C proteinase enhancer protein, 1,25-D3-MARRS, nascent polypeptide associated complex alpha chain; assay: 2-D SDS-PAGE and mass spectrometry of cell layer EDTA extracts, fragmentation of mineralization related proteins; format: cell-based, Rat; conditions: +BGP versus +BGP with 0.04 mM AEBSF, serum-depleted
Method: Two Step Extraction of Cell Layer—2-Step Method. During the final 24 hour mineralization period, cells were grown in BSA-free, serum-free media conditions to reduce the amount of BSA in fractions used for 2-dimensional gel electrophoresis. Media was removed from each flask, heated at 95° C. for 5 minutes, dialyzed against 5% acetic acid, and lyophilized to dryness. Cell layers were first extracted without mixing for 2 h at 4° C. in 0.05 M Tris-acetate buffer (pH 7.5) containing 0.15 M NaCl, 0.05 M EDTA and 0.02% sodium azide; extracts were then inactivated at 95° C. for 5 minutes, dialyzed against 5% HAc, and lyophilized to dryness. […]
Mass Spectrometric Analyses. Protein bands were detected by staining with Coomassie blue G or with Sypro Ruby dye according to the manufacturer's instructions (Bio-Rad, Inc.). […] The data were analyzed using Mascot (Matrix Science, LTD), to find protein matches in the MSDB—20050227.fasta database. […]
AEBSF is a general serine protease inhibitor and the inhibition of mineralization by AEBSF could very well be due to the blockage of cleavage events of other necessary proteins. […] There were no major differences detected between the two growth conditions for either the urea extract or the media fraction. However, the differences detected between the two EDTA extracts were visually dramatic (FIG. 9). […]

SMILES: Cl.NCCc1ccc(S(=O)(=O)F)cc1 [AEBSF, 4-(2-aminoethyl)-benzenesulfonylfluoride HCl]
- uptake of BAG-75 and BSP (75 kDa glycophosphoprotein band) from media by the cell layer (BAG-75 and BSP; 0.1 mM AEBSF with 7 mM β-glycerol phosphate, 64-88 hours, HCl): blocked; also recorded: blocks uptake
- proteolytic cleavage of BAG-75 and BSP to 45-50 kDa fragments (BAG-75 and BSP; UMR cultures with β-glycerol phosphate, two stage extraction, immunoblot): blocks uptake and cleavage
- change in viable cell number (MTT) [1]: little change in viable cell number
- concentration below which no loss of cell viability was noted (MTT) (UMR-106 cells [2]; rat, UMR 106-01 cells, pH 7.2): below 1 mM
- concentration above which toxic (MTT) (UMR-106 cells [2]; serum-sufficient or serum-depleted conditions): above 0.4 mM
- concentration capable of completely blocking mineral nucleation (as low as) (UMR-106 cells [3]; UMR cultures, 64-88 h after plating): 0.04 mM
- effect on mineral nucleation / mineralization in BMF (UMR-106 cells [3]; UMR system, added at 64 hours after plating, optimal recommended dosage): blocked mineral nucleation
- difference in effectiveness, mineralization period (64-88 h) versus proliferation/differentiation period (44-64 h after plating) (UMR-106 cells [3]; assuming baseline mineral level of 150-170 nmoles/well, FIG. 4A): 10 fold
- cleavage of three additional proteins in EDTA extract [4]: inhibited the cleavage
